From PubChem BioAssay AID330 (DTP/NCI, 2004)
“And” between values parts separate entries of the source, which are not always exact repeats. Equal entries are not always repeated. Toxic doses and inconclusive results are not listed. The calls were made as follows: active = survival T/C of 150% or more; inactive = T/C below 125% in these data.

Test system: P388 leukemia ip, CD2F1 mice, survival T/C
Assay: NCI In Vivo Anticancer Drug Screen. Data for tumor model P388 Leukemia (intraperitoneal) in CD2F1 (CDF1) mice
Settings: endpoint: median survival time, higher = longer survival
How it was run: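 Mice carrying the transplanted tumor received test compound or vehicle. Survival was recorded in each group, and the value is the treated-group measurement divided by that of the vehicle-treated control group.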

Measured: T/C

O=C1C=CC(=O)c2nc3ccccc3nc21
inactive: dose: 1.56 mg/kg/injection, schedule: Q01DX009 (ip), vehicle: distilled water + Tween-80 87 % of control | dose: 3.12 mg/kg/injection, schedule: Q01DX009 (ip), vehicle: distilled water + Tween-80 103 % of control | dose: 6.25 mg/kg/injection, schedule: Q01DX009 (ip), vehicle: distilled water + Tween-80 105 % of control and 106 % of control

CCCCCCNCC(=O)OCC
inactive: dose: 50.0 mg/kg/injection, schedule: Q01DX005 (ip), vehicle: saline 101 % of control | dose: 100.0 mg/kg/injection, schedule: Q01DX005 (ip), vehicle: saline 106 % of control | dose: 200.0 mg/kg/injection, schedule: Q01DX005 (ip), vehicle: saline 110 % of control
